Assay results reported in ChEMBL document CHEMBL3853339, “Bioactive phenols as potential neuroinflammation inhibitors from the leaves of Xanthoceras sorbifolia Bunge” (Bioorg Med Chem Lett, 2016).

Columns and labels:
[1] = Cytotoxicity against LPS-activated […] cells assessed as cell viability at 30 uM after 24 hrs by MTT assay (reference value: 98.03 to 98.84%); assay type: toxicity, cell-based, Mus musculus, BV-2; conditions: read-out: Activity
[2] = Cytotoxicity against LPS-activated human BV2 cells assessed as cell viability at 1 uM after 24 hrs by MTT assay (reference value: 98.03 to 98.84%); assay type: toxicity, cell-based, Mus musculus, BV-2; conditions: read-out: Activity
[3] = Antineuroinflammatory activity in […] cells assessed as inhibition of LPS-induced NO production after 24 hrs in presence of LPS by Griess reaction; assay type: functional, cell-based; conditions: BV-2, 24 h
[4] = Cytotoxicity against LPS-activated […] cells assessed as cell viability at 10 uM after 24 hrs by MTT assay (reference value: 98.03 to 98.84%); assay type: toxicity, cell-based, Mus musculus, BV-2; conditions: read-out: Activity
[5] = Cytotoxicity against LPS-activated human BV2 cells assessed as cell viability at 100 uM after 24 hrs by MTT assay (reference value: 98.03 to 98.84%); assay type: toxicity, cell-based, Mus musculus, BV-2; conditions: read-out: Activity

Compound: Oc1cc(O)c2c(c1)O[C@H](c1cc(O)c(O)c(O)c1)[C@H](O)C2 [EPIGALLOCATECHIN]
- viability at 24 h, 30 µM [1]: 100%
- viability at 24 h, 1 µM [2]: 95.3%
- IC50 [3]: > 100 µM
- viability at 24 h, 10 µM [4]: 96.4%
- viability at 24 h, 100 µM [5]: 94.6%

Compound: C[C@@H]1O[C@@H](OC[C@H]2O[C@@H](Oc3c(-c4ccc(O)c(O)c4)oc4cc(O)cc(O)c4c3=O)[C@H](O)[C@@H](O)[C@@H]2O)[C@H](O)[C@H](O)[C@H]1O [RUTIN]
- viability at 24 h, 30 µM [1]: 91%
- viability at 24 h, 1 µM [2]: 97.2%
- viability at 24 h, 10 µM [4]: 94.6%
- viability at 24 h, 100 µM [5]: 95%

Compound: COc1cc([C@@H]2OC[C@H]3[C@@H]2CO[C@H]3c2cc(OC)c(O[C@@H]3O[C@H](CO)[C@@H](O)[C@H](O)[C@H]3O)c(OC)c2)cc(OC)c1O[C@@H]1O[C@H](CO)[C@@H](O)[C@H](O)[C@H]1O
- viability at 24 h, 30 µM [1]: 100%
- viability at 24 h, 1 µM [2]: 100%
- IC50 [3]: > 100 µM
- viability at 24 h, 10 µM [4]: 97.5%
- viability at 24 h, 100 µM [5]: 94.9%

Compound: O=C(O)/C=C\c1ccc(O[C@@H]2O[C@H](CO)[C@@H](O)[C@H](O)[C@H]2O)cc1
- viability at 24 h, 30 µM [1]: 93%
- viability at 24 h, 1 µM [2]: 90.9%
- IC50 [3]: > 100 µM
- viability at 24 h, 10 µM [4]: 95.4%
- viability at 24 h, 100 µM [5]: 90%

Compound: C[C@@H]1O[C@@H](Oc2c(-c3ccc(O)c(O)c3)oc3cc(O)cc(O)c3c2=O)[C@H](O)[C@H](O)[C@H]1O [QUERCITRIN]
- viability at 24 h, 30 µM [1]: 99.3%
- viability at 24 h, 1 µM [2]: 92%
- IC50 [3]: > 100 µM
- viability at 24 h, 10 µM [4]: 91%
- viability at 24 h, 100 µM [5]: 96.5%

Compound: Oc1cc(O)c2c(c1)O[C@H](c1cc(O)c(O)c(O)c1)[C@@H](O)C2 [GALLOCATECHIN]
- viability at 24 h, 30 µM [1]: 89.5%
- viability at 24 h, 1 µM [2]: 89.5%
- IC50 [3]: > 100 µM
- viability at 24 h, 10 µM [4]: 94.2%
- viability at 24 h, 100 µM [5]: 82.6%

Compound: COc1cc(CO)cc(OC)c1O[C@@H]1O[C@H](CO)[C@@H](O)[C@H](O)[C@H]1O
- viability at 24 h, 30 µM [1]: 90.7%
- viability at 24 h, 1 µM [2]: 91.1%
- IC50 [3]: > 100 µM
- viability at 24 h, 10 µM [4]: 94.7%
- viability at 24 h, 100 µM [5]: 87%

Compound: COc1cc(/C=C/C(=O)O)cc(OC)c1O[C@@H]1O[C@H](CO)[C@@H](O)[C@H](O)[C@H]1O
- viability at 24 h, 30 µM [1]: 93.1%
- viability at 24 h, 1 µM [2]: 94.5%
- IC50 [3]: > 100 µM
- viability at 24 h, 10 µM [4]: 96.3%
- viability at 24 h, 100 µM [5]: 95.6%

Compound: C[C@@H]1O[C@@H](OC[C@H]2O[C@@H](Oc3c(-c4ccc(O)cc4)oc4cc(O)cc(O)c4c3=O)[C@H](O)[C@@H](O)[C@@H]2O)[C@H](O)[C@H](O)[C@H]1O [NICOTIFLOROSIDE]
- viability at 24 h, 30 µM [1]: 92.1%
- viability at 24 h, 1 µM [2]: 98.7%
- IC50 [3]: 88 µM
- viability at 24 h, 10 µM [4]: 110%
- viability at 24 h, 100 µM [5]: 113%

Compound: C[C@@H]1O[C@@H](OC[C@H]2O[C@@H](Oc3c(-c4cc(O)c(O)c(O)c4)oc4cc(O)cc(O)c4c3=O)[C@H](O)[C@@H](O)[C@@H]2O)[C@H](O)[C@H](O)[C@H]1O
- viability at 24 h, 30 µM [1]: 86%
- viability at 24 h, 1 µM [2]: 92.2%
- IC50 [3]: 74.7 µM
- viability at 24 h, 10 µM [4]: 87.1%
- viability at 24 h, 100 µM [5]: 86.9%

Compound: O=c1c(O)c(-c2ccc(O)c(O)c2)oc2cc(O)cc(O)c12 [QUERCETIN]
- viability at 24 h, 30 µM [1]: 96.9%
- viability at 24 h, 1 µM [2]: 87.5%
- IC50 [3]: 39.5 µM
- viability at 24 h, 10 µM [4]: 90.7%
- viability at 24 h, 100 µM [5]: 99.7%

Compound: Oc1cc(O)c2c(c1)O[C@H](c1ccc(O)c(O)c1)[C@H](O)C2 [(-)-EPICATECHIN]
- viability at 24 h, 30 µM [1]: 88%
- viability at 24 h, 1 µM [2]: 84.4%
- IC50 [3]: 47.4 µM
- viability at 24 h, 10 µM [4]: 87.6%
- viability at 24 h, 100 µM [5]: 93.2%

Compound: O=c1c(O[C@@H]2O[C@H](CO)[C@@H](O)[C@H](O)[C@H]2O)c(-c2ccc(O)c(O)c2)oc2cc(O)cc(O)c12 [ISOQUERCETIN]
- viability at 24 h, 30 µM [1]: 87.7%
- viability at 24 h, 1 µM [2]: 101%
- IC50 [3]: 13.4 µM
- viability at 24 h, 10 µM [4]: 98.4%
- viability at 24 h, 100 µM [5]: 85.2%

Compound: COc1cc([C@H]2OC[C@H]3[C@@H]2CO[C@@H]3c2cc(OC)c(O[C@@H]3O[C@H](CO)[C@@H](O)[C@H](O)[C@H]3O)c(OC)c2)cc(OC)c1O
- viability at 24 h, 30 µM [1]: 95.4%
- viability at 24 h, 1 µM [2]: 92.9%
- IC50 [3]: 3.08 µM
- viability at 24 h, 10 µM [4]: 87.4%
- viability at 24 h, 100 µM [5]: 94.4%

Compound: C[C@@H]1O[C@@H](Oc2c(-c3cc(O)c(O)c(O)c3)oc3cc(O)cc(O)c3c2=O)[C@H](O)[C@H](O)[C@H]1O
- viability at 24 h, 30 µM [1]: 99.3%
- viability at 24 h, 1 µM [2]: 97.9%
- IC50 [3]: > 100 µM
- viability at 24 h, 10 µM [4]: 99.5%
- viability at 24 h, 100 µM [5]: 107%

Compound: Oc1cc(O)c2c(c1)O[C@]1(c3ccc(O)c(O)c3)Oc3cc(O)c4c(c3[C@H]2[C@@H]1O)O[C@@]1(c2ccc(O)c(O)c2)Oc2cc(O)c3c(c2[C@@H]4[C@H]1O)O[C@@H](c1ccc(O)c(O)c1)[C@H](O)C3
- viability at 24 h, 30 µM [1]: 104%
- viability at 24 h, 1 µM [2]: 94.4%
- IC50 [3]: > 100 µM
- viability at 24 h, 10 µM [4]: 97.3%
- viability at 24 h, 100 µM [5]: 112%

Compound: O=c1c(O)c(-c2cc(O)c(O)c(O)c2)oc2cc(O)cc(O)c12 [MYRICETIN]
- viability at 24 h, 30 µM [1]: 109%
- viability at 24 h, 1 µM [2]: 97.7%
- IC50 [3]: > 100 µM
- viability at 24 h, 10 µM [4]: 98.4%
- viability at 24 h, 100 µM [5]: 116%

Compound: Oc1cc(O)c2c(c1)O[C@H](c1ccc(O)c(O)c1)[C@@H](O)C2 [CIANIDANOL]
- viability at 24 h, 30 µM [1]: 102%
- viability at 24 h, 1 µM [2]: 81.5%
- IC50 [3]: 9.52 µM
- viability at 24 h, 10 µM [4]: 88.3%
- viability at 24 h, 100 µM [5]: 117%

Compound: O=c1c(O[C@@H]2O[C@H](CO)[C@@H](O)[C@H](O)[C@H]2O[C@@H]2O[C@H](CO)[C@@H](O)[C@H](O)[C@H]2O)c(-c2ccc(O)c(O)c2)oc2cc(O)cc(O)c12
- viability at 24 h, 30 µM [1]: 96.5%
- viability at 24 h, 1 µM [2]: 84.5%
- IC50 [3]: > 100 µM
- viability at 24 h, 10 µM [4]: 87.7%
- viability at 24 h, 100 µM [5]: 108%

Compound: O=C(O)/C=C/c1ccc(O[C@@H]2O[C@H](CO)[C@@H](O)[C@H](O)[C@H]2O)cc1
- viability at 24 h, 30 µM [1]: 101%
- viability at 24 h, 1 µM [2]: 101%
- IC50 [3]: 9.08 µM
- viability at 24 h, 10 µM [4]: 98.4%
- viability at 24 h, 100 µM [5]: 94.7%

Compound: COc1cc(-c2oc3cc(O)cc(O)c3c(=O)c2O[C@@H]2O[C@H](CO[C@@H]3O[C@@H](C)[C@H](O)[C@@H](O)[C@H]3O)[C@@H](O)[C@H](O)[C@H]2O)ccc1O [NARCISSIN]
- viability at 24 h, 30 µM [1]: 88.7%
- viability at 24 h, 1 µM [2]: 95.1%
- IC50 [3]: > 100 µM
- viability at 24 h, 10 µM [4]: 89.5%
- viability at 24 h, 100 µM [5]: 88.8%

Compound: COc1cc([C@@H]2OC[C@H]3[C@@H]2CO[C@@H]3c2cc(OC)c(O[C@@H]3O[C@H](CO)[C@@H](O)[C@H](O)[C@H]3O)c(OC)c2)cc(OC)c1O
- viability at 24 h, 30 µM [1]: 102%
- viability at 24 h, 1 µM [2]: 92.4%
- IC50 [3]: > 100 µM
- viability at 24 h, 10 µM [4]: 91.6%
- viability at 24 h, 100 µM [5]: 100%

Compound: CN(C)c1ccc(O)c2c1C[C@H]1C[C@H]3[C@H](N(C)C)C(O)=C(C(N)=O)C(=O)[C@@]3(O)C(O)=C1C2=O [MINOCYCLINE]
- IC50 [3]: 37 µM
